Measurements from a melting point compilation (Tetko et al.; mined from patent text by program, amines drawn as free bases though some values may be those of a salt).

Compound `Cc1ccc(CNc2cccc3c2CN(C2CCC(=O)NC2=O)C3=O)o1` (centres undefined) has a melting point of 242 to 244 °C.
`CCOC(=O)CCc1ccc(CCN2CCN(S(=O)(=O)c3ccccc3)CC2)cc1` showed a melting point of 114 to 116 °C.
`Cc1ccc2[nH]c(=O)n(CCCN3CCN(C(c4ccccc4)c4ccccc4)CC3)c2c1` showed a melting point of 196 °C.
Work on `COc1cc2cnnc(Cl)c2cc1OC` yielded a melting point of 195 to 197 °C.
In the case of `CCCCC(=O)C(Cc1ccc(C(=O)O)cc1)c1ccccc1` (centres undefined), the melting point was 140 °C.
In the case of `NC(=O)c1sc(Nc2ccccc2)c2c1CCc1cn[nH]c1-2`, the melting point was 233 to 234 °C.
In the case of `CC(C)NCCCCOc1ccc(O)cc1`, the melting point was 91 to 93 °C.
In the case of `CN(C1c2cc(OCc3ccccc3)ccc2OC(C)(C)C1O)S(C)(=O)=O` (centres undefined), the melting point was 162 to 164 °C.
Compound `COCCN(C)Cc1c(-c2ccc(NC(=O)NOC)cc2)sc2c1c(=O)n(-c1ccccc1)c(=O)n2Cc1c(F)cccc1F` has a melting point of 161 to 163 °C.
For `COc1cc(C)ccc1Oc1ccc(Br)cc1C=O`, the melting point was 89 to 90 °C.
In the case of `CSc1nn2c(N)cc(C)nc2c1S(=O)(=O)c1ccc2ccccc2c1`, the melting point was greater than 230 °C.
`CCc1nc(/C=C/c2cn(-c3ccccc3)nc2OCc2ccc(OCc3nc(-c4cccc(C#N)c4)oc3C)c(OC)c2)cs1` showed a melting point of 138 to 140 °C.
In the case of `CCCn1nc2c(N)nc3ccccc3c2c1NC`, the melting point was 200 to 201 °C.
`CCOC(=O)c1cnoc1-c1cccc(Cl)c1` gave a melting point of 75 to 77 °C.
In the case of `CCCc1cc(Cl)c2occ(C)c2c1O`, the melting point was 49 to 50 °C.
With `NS(=O)(=O)c1cc(C(=O)O)cc(S)c1Oc1ccccc1` the melting point was 225 °C.
Compound `COc1cc(OC)c(-c2cccs2)cc1/C=C/C(=O)c1ccc(S(=O)(=O)NCC(=O)O)cc1` has a melting point of 100 to 101 °C.
Compound `C=CCn1cc(C(=O)O)c(=O)c2cc(F)c(N3CCOCC3)cc21` has a melting point of 210 °C.
`C(#Cc1cnc2ccccc2c1)CCN1CC=C(c2ccccc2)CC1` showed a melting point of 94.3 to 95.8 °C.
In the case of `CCCC1CCC(=O)C=C1c1ccc(OCC(=O)O)c(Cl)c1Cl` (centres undefined), the melting point was 177 to 178 °C.
`Cc1nc(C(F)F)c(C(=O)Nc2ccccc2-c2ccc(Br)cc2)s1` gave a melting point of 151 °C.
Work on `O=C(Nc1ccc2nc(-c3ccccc3)oc2n1)c1ccccc1` yielded a melting point of 191 to 192 °C.
`CC(=O)c1cc(NC(=O)NCCN(CCNC(=O)Nc2cc(C(C)=O)cc(C(C)=O)c2)CCNC(=O)Nc2cc(C(C)=O)cc(C(C)=O)c2)cc(C(C)=O)c1` showed a melting point of 197 to 198 °C.
For `C=Cc1c(NC(=O)OC(C)(C)C)cccc1[N+](=O)[O-]`, the melting point was 120 to 121 °C.
For `CCOC(=O)CC1CCc2cc3ccccc3n2C1` (centres undefined), the melting point was 66 to 68 °C.
`COc1cc(C=O)cc2c1OC1(CCCC1)C2` gave a melting point of 54 °C.
Work on `CCC(C(=O)O)C1=NC(c2ccccc2)(c2ccccc2)CO1` (centres undefined) yielded a melting point of 125 to 126 °C.
Work on `Cc1sc(N)nc1-c1ccc(CCN2CCN(c3cccc(C(F)(F)F)c3)CC2)cc1` yielded a melting point of 110 to 115 °C.
Compound `CC(C)(C)OC(=O)N1CCC(Oc2ccc(C3=NNC(=O)CC3)c(F)c2)CC1` has a melting point of 146 to 148 °C.
With `C=C1CC2C3CCC4=CC(=O)C=CC4(C)C3=CCC2(C)C1=O` (centres undefined) the melting point was 157 to 160 °C.
For `O=S(=O)(CCO)c1ccccc1`, the melting point was 87 to 89 °C.
Compound `Cc1cncc(CN2CCC(=C3c4ccc(Cl)cc4CCc4cccnc43)CC2)c1` has a melting point of 58 to 61 °C.
Compound `CC(C)(C)c1ccc2c3c(c(=O)oc2c1)CNCC3` has a melting point of 181 to 186 °C.
Work on `CCOC(=O)c1nc(-c2ccc([N+](=O)[O-])cc2)[nH]c1-c1cccc(OC)c1` yielded a melting point of 194 to 196 °C.
With `CC(=O)c1cc(C)c(NC(=O)c2cc(C(F)(F)F)nn2-c2ncccc2Cl)c(C(=O)NC(C)C)c1` the melting point was 135 to 137 °C.
`CCn1ncc2cc3c(nc21)C(O)c1ccccc1CC3` (centres undefined) gave a melting point of 130 to 132 °C.
For `COc1cc(C(=O)NCCC2Cc3c(C)c(OCc4ccccc4)c(C)c(C)c3O2)cc(OC)c1OC` (racemic), the melting point was 171 to 173 °C.
Compound `CC(Oc1ccc2c(=O)c(-c3cccc(O)c3)coc2c1)C(=O)O` (centres undefined) has a melting point of 218 to 219 °C.
For `Cc1ccc(N2C(=O)c3nccnc3C2=O)nc1`, the melting point was 240 °C.
Compound `CC(C)(C)OC(=O)N1CCc2cc(N)c(N)cc2CC1` has a melting point of 147 to 149 °C.
In the case of `COc1ccc(C2N3CCSC3=NC2(O)c2ccc(F)cc2)cc1` (centres undefined), the melting point was 150 to 151 °C.
For `CC(C)(C)C(=O)OCN1C(=O)NC2(C1=O)C(=O)N(Cc1ccc(Cl)c(Cl)c1)c1ccccc12` (centres undefined), the melting point was 209 to 211 °C.
With `COc1ccc(CN(CCN(C)CCCCNC(=O)NCCCOc2cccc(CN3CCCCC3)c2)c2ccccn2)cc1` the melting point was 68 to 72 °C.
`CCN1c2ncc(CCc3ccc(NS(C)(=O)=O)cc3)cc2C(=O)N(C)c2ccc(Cl)nc21` showed a melting point of 199 to 204 °C.
Work on `CCC(=O)C1CN(C(c2ccccc2)c2ccccc2)C1` yielded a melting point of 73 to 75 °C.
Compound `O=C(O)c1nn(-c2c(Cl)cc(C(F)(F)F)cc2Cl)cc1OC(F)F` has a melting point of 180 to 183 °C.
With `CCCOC(=O)C(=O)Nc1ccccn1` the melting point was 56 to 59 °C.
For `Oc1ccc(Nc2n[nH]c3ncnc(Nc4cccc(Cl)c4)c23)cc1`, the melting point was greater than 260 °C.
Work on `Nc1cc(=O)n(Cc2ccc(C(F)(F)F)c(Cl)c2)[nH]1` yielded a melting point of 83 °C.
With `CCCc1nc(C)c(C(=O)O)n1Cc1ccc2oc(-c3ccccc3NS(=O)(=O)C(F)(F)F)c(Br)c2c1` the melting point was 168 to 170 °C.
Compound `Cc1cccc(Nn2cnc(C)c2-c2ccccc2)c1` has a melting point of 159 °C.
With `CC(C)c1c[nH]c(S)n1` the melting point was 147 to 150 °C.
In the case of `CCOC(=O)c1c(N[C@H]2CC[C@@H](c3ccccc3)CC2)ccnc1C`, the melting point was 191 °C.
In the case of `OCc1c[nH]c(=S)n1[C@H]1CCc2cc(Cl)c(Cl)cc2C1`, the melting point was 247 to 248 °C.
For `O=C(O)c1cccn1-c1ccc(F)cc1`, the melting point was 195 to 196 °C.
With `O=[N+]([O-])C=C1NCCN1Cc1ccc(Cl)nc1` the melting point was 160 to 161 °C.
`CCOC(=O)C(=CNc1cccc(-c2ccncc2)c1)C(C)=O` showed a melting point of 107 to 108 °C.
`O=C(NCCO)c1cc(F)cc(-c2ccc(F)c3cc(Cc4cccc(C(F)(F)F)c4)sc23)c1` gave a melting point of 107 to 108 °C.
For `CCCCNC(=O)NS(=O)(=O)Cc1ccccc1-c1nnc(SC)o1`, the melting point was 156 to 159 °C.
In the case of `N#Cc1c(N2CCCC2)cc(-c2ccccc2)c2c1Cc1ccccc1-2`, the melting point was 210 to 212 °C.
In the case of `FC(F)(F)Oc1ccc2nc(C(F)(F)F)[nH]c2c1`, the melting point was 158 to 160 °C.
With `Cc1ccc(N2CCN(c3ccc4c(ncc5c4c(=O)c(C(=O)O)cn5C)c3F)CC2)cc1F` the melting point was greater than 300 °C.
Compound `Cc1cc(=O)[nH]c2nc(CCCCCN3CCN(c4cccc(Cl)c4Cl)CC3)ccc12` has a melting point of 195 to 196 °C.
Compound `CCCCn1c(O)c(N=Nc2ccc(S(=O)(=O)N(CC(C)O)CC(C)O)cc2)c(C)c(C#N)c1=O` (centres undefined) has a melting point of 189 to 190 °C.
Compound `CCCCc1nn2c(C)c(C)nc2n1Cc1ccc(-c2ccccc2-c2nnn[nH]2)cc1` has a melting point of 138 to 141 °C.
In the case of `Cc1sc(S(N)(=O)=O)cc1NC(=O)c1cnn2c(C(F)F)cc(-c3ccc(C(F)(F)F)cc3)nc12`, the melting point was 313 °C.
With `Brc1ccc2noc(-c3ccccc3)c2c1` the melting point was 113 to 116 °C.
Work on `CCN1C(=O)C(C)(C)C(=O)N(C)c2cc(OCCCN3C(=O)C4(OCCO4)c4ccccc43)ccc21` yielded a melting point of 143 to 147 °C.
Compound `CC(C)(C)C(=O)OCOC(=O)Cn1c(=O)c2cc(Cl)ccc2n(Cc2ccc(Cl)c(Cl)c2)c1=O` has a melting point of 124 to 126 °C.
Compound `CC(C)c1cccc(-c2ccc(F)cc2)c1/C=C/COc1ccc(C(=O)C(=O)O)cc1` has a melting point of 142 to 143 °C.
`CCOC(=O)CSc1nc(Cl)cc(Nc2c(C)cc(C)cc2C)n1` showed a melting point of 100 to 103 °C.
Work on `CC(=O)CCCCC(=O)Nc1ccccc1` yielded a melting point of 85.5 to 86.5 °C.
`C=C(c1ccc(-c2nnc(N)s2)cc1)C(O)(Cn1cncn1)c1ccc(F)cc1F` (centres undefined) showed a melting point of 118 to 121 °C.
Work on `Cc1cc(C2CN(C(=O)Nc3ccc(OC(F)(F)F)cc3)N=C2c2ccccc2)on1` (centres undefined) yielded a melting point of 195 to 197 °C.
Compound `Cc1ccc(S(=O)(=O)Nc2cc(C)cc([N+](=O)[O-])c2N)cc1` has a melting point of 184 °C.
In the case of `COC(=O)c1ccc(SC)c([N+](=O)[O-])c1`, the melting point was 118 to 120 °C.
`NC1COc2ccccc2NC1=O` (centres undefined) gave a melting point of 65 to 70 °C.
Compound `O=C(O)C(Cc1ccccc1)Oc1ccc2cc(-c3oc4ccccc4c3Br)ccc2c1Br` (centres undefined) has a melting point of 206 to 209 °C.
For `CC(C)(CC(=O)c1ccc2c(c1)CC(N1C(=O)c3ccccc3C1=O)C2)C(=O)O` (centres undefined), the melting point was 238 to 240 °C.
With `N#Cc1nn(-c2c(Cl)cc(C(F)(F)F)cc2Cl)c(N)c1S(=O)(=O)CC(F)(F)F` the melting point was 157 °C.
`OOC1(OO)C2CC3CC(C2)CC1C3` showed a melting point of 144 to 145 °C.
In the case of `O=C(NC(=O)c1cc(F)c(F)cc1Cl)Nc1cccnc1N1CCC(C(=O)NCCO)CC1`, the melting point was 203 °C.
With `CCCCCCCCCCCCCS(=O)c1nc(NC(=O)Nc2c(C(C)C)cccc2C(C)C)n[nH]1` (centres undefined) the melting point was 178 to 181 °C.
For `CC(C)(C)OC(=O)N1CCC(c2ccc(Nc3nc4c(-c5cnn(-c6ccc(F)cc6)c5)cccn4n3)cc2)CC1`, the melting point was 176 to 178 °C.
`CC(C)(C)c1ccc(C(=O)Nc2ccc(OCC(=O)O)cc2)cc1` showed a melting point of 179 to 181 °C.
With `O=C(Nc1ccc(-n2nc(C(F)(F)F)cc2-c2cccs2)cc1)c1ccncc1F` the melting point was 153 to 155 °C.
Compound `O=C1CCCc2ccc(-c3ccccc3)cc21` has a melting point of 67 °C.
With `CCc1noc2c(Cl)c3c(cc12)CC(C(=O)O)O3` (centres undefined) the melting point was 213 to 215 °C.
`COc1cc(OC)c(C23CC4CC(CC(C4)C2)C3)cc1C=O` gave a melting point of 152 to 154 °C.
For `COc1ccc(Cn2cccc2C(=O)CC(=O)C(=O)O)cc1`, the melting point was 167 to 168 °C.
Compound `O=C(O)C(=O)CC(=O)c1cccn1Cc1ccc2ccccc2c1` has a melting point of 160 to 162 °C.
In the case of `N#CCc1c[nH]c2cnc(-n3cncn3)cc12`, the melting point was 218 to 220 °C.
With `C=CCOc1ccc(Oc2ccc(C(=O)OC)cc2)cc1` the melting point was 75 °C.
`COC(=O)CCc1ncccc1O` showed a melting point of 94 to 96 °C.
`Cc1cc(Oc2cccc(C(F)(F)F)c2)nn1C(=O)Nc1ccccc1Cl` gave a melting point of 84 to 86 °C.
Work on `c1ccc(SCC2=NCCN2)cc1` yielded a melting point of 84 to 85.6 °C.
Work on `CC(O)CN(Oc1ccccc1C1CCCCC1)C1CCCC(C2CNC(=O)N2)C1` (centres undefined) yielded a melting point of 117 to 120 °C.
Compound `CC(=O)c1ccc(C2C(C(=O)c3ccc(C(C)C)cc3)=C(O)C(=O)N2c2ccc(C)nn2)cc1` (centres undefined) has a melting point of 259 to 266 °C.
In the case of `O=C(O)CCCCCOc1ccc(C2OC3C(CO)OC(n4ccc(=O)[nH]c4=O)C3O2)cc1` (centres undefined), the melting point was 158 to 160 °C.
